In ChEMBL document CHEMBL1201862, “PubChem BioAssay data set” (2004):
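Protocol summary: plate cells (96-well), add compound at 5 concentrations, incubate 48 h, interpolate endpoints linearly. At the GI50, growth is halved.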 Calls of active or inactive are those of the source. No stated cut-off is given here; in the data, active = GI50 up to about 1.1 µM and inactive = higher.

Experiments:
Test in all cases: NCI-60 cell line screen, 48 h
HCT-116 = tested on: HCT-116
UACC-62 = tested on: UACC-62
A549 = tested on: A549
NCI-H226 = tested on: NCI-H226
K562 = tested on: K562
RPMI-8226 = tested on: RPMI-8226
M14 = tested on: M14
IGROV-1 = tested on: IGROV-1
A498 = tested on: A498
OVCAR-3 = tested on: OVCAR-3
NCI-H23 = tested on: NCI-H23
UACC-257 = tested on: UACC-257
NCI/ADR-RES = tested on: NCI/ADR-RES
ACHN = tested on: ACHN
EKVX = tested on: EKVX
Malme-3M = tested on: Malme-3M
SK-MEL-5 = tested on: SK-MEL-5
SF-268 = tested on: SF-268
SNB-75 = tested on: SNB-75
PC-3 = tested on: PC-3

| Compound | GI50 (HCT-116) | GI50 (UACC-62) | GI50 (A549) | GI50 (NCI-H226) | GI50 (K562) | GI50 (RPMI-8226) | GI50 (M14) | GI50 (IGROV-1) | GI50 (A498) | GI50 (OVCAR-3) | GI50 (NCI-H23) | GI50 (UACC-257) | GI50 (NCI/ADR-RES) | GI50 (ACHN) | GI50 (EKVX) | GI50 (Malme-3M) | GI50 (SK-MEL-5) | GI50 (SF-268) | GI50 (SNB-75) | GI50 (PC-3) |
| --- | --- | --- | --- | --- | --- | --- | --- | --- | --- | --- | --- | --- | --- | --- | --- | --- | --- | --- | --- | --- |
| C=C1CC(c2ccc(OCCCN3C(=O)c4ccccc4C3=O)c(OC)c2)OC1=O (stereo not drawn) | 1.6 µM (inactive) | 2.07 µM (inactive) | 13.6 µM (inactive) | 5.61 µM (inactive) | 1.07 µM (active) | 0.849 µM (active) | 4.3 µM (inactive) | 2.56 µM (inactive) | 1.77 µM (inactive) | 2.21 µM (inactive) | 4.82 µM (inactive) | 3.63 µM (inactive) | 17.9 µM (inactive) | 6.25 µM (inactive) | 11 µM (inactive) | 3.27 µM (inactive) | 11.1 µM (inactive) | 8.09 µM (inactive) | 0.382 µM (active) | 12.4 µM (inactive) |
| BrC(=C(c1ccc(OC2CCCCO2)cc1)c1ccc(OC2CCCCO2)cc1)c1ccccc1 (stereo not drawn) | > 100 µM (inactive) | > 100 µM (inactive) | > 100 µM (inactive) | > 100 µM (inactive) | > 100 µM (inactive) | > 100 µM (inactive) | > 100 µM (inactive) | > 100 µM (inactive) | > 100 µM (inactive) | > 100 µM (inactive) | > 100 µM (inactive) | > 100 µM (inactive) | > 100 µM (inactive) | – | > 100 µM (inactive) | > 100 µM (inactive) | – | > 100 µM (inactive) | > 100 µM (inactive) | > 100 µM (inactive) |
| CC(CO)CCC(O)C(C)(O)C1CCC2(O)C3=CC(=O)C4CC(O)C(O)CC4(C)C3CCC12C (stereo not drawn) | > 100 µM (inactive) | > 100 µM (inactive) | > 100 µM (inactive) | > 100 µM (inactive) | > 100 µM (inactive) | > 100 µM (inactive) | > 100 µM (inactive) | – | > 100 µM (inactive) | > 100 µM (inactive) | > 100 µM (inactive) | > 100 µM (inactive) | > 100 µM (inactive) | > 100 µM (inactive) | > 100 µM (inactive) | > 100 µM (inactive) | > 100 µM (inactive) | – | 84.3 µM (inactive) | > 100 µM (inactive) |
| COC1C(O)CC(OC2C(C)OC(Oc3cc(O)c4c(O)c5c(cc4c3)C[C@@H]([C@H](OC)C(=O)[C@@H](O)[C@@H](C)O)[C@H](OC3CC(OC4CC(OC6CC(C)(O)C(O)C(C)O6)C(O)C(C)O4)C(O)C(C)O3)C5=O)CC2OC(C)=O)OC1C (stereo partly drawn) | 59.2 µM (inactive) | 29.4 µM (inactive) | 63.1 µM (inactive) | 29 µM (inactive) | 40.1 µM (inactive) | 60.8 µM (inactive) | – | 41.1 µM (inactive) | > 100 µM (inactive) | > 100 µM (inactive) | 88.1 µM (inactive) | – | > 100 µM (inactive) | 56.1 µM (inactive) | > 100 µM (inactive) | 3.47 µM (inactive) | 17.1 µM (inactive) | 97.1 µM (inactive) | > 100 µM (inactive) | > 100 µM (inactive) |
| Cc1cc(S(=O)(=O)Nc2nc(N)nc(N(C)C)n2)c(SC(C(=O)O)c2ccccc2)cc1Cl (stereo not drawn) | > 10 µM (inactive) | – | > 10 µM (inactive) | > 10 µM (inactive) | > 10 µM (inactive) | > 10 µM (inactive) | > 10 µM (inactive) | > 10 µM (inactive) | > 10 µM (inactive) | > 10 µM (inactive) | > 10 µM (inactive) | > 10 µM (inactive) | > 10 µM (inactive) | > 10 µM (inactive) | > 10 µM (inactive) | > 10 µM (inactive) | > 10 µM (inactive) | > 10 µM (inactive) | > 10 µM (inactive) | > 10 µM (inactive) |
